Test results published in ChEMBL document CHEMBL4825781, “Role of Fluorination in the Histone Deacetylase 6 (HDAC6) Selectivity of Benzohydroxamate-Based Inhibitors” (ACS Med Chem Lett, 2021).

Tests used:
[1] = target: Histone deacetylase 2 (Homo sapiens, UniProt Q92769); assay: Inhibition of recombinant human C-terminal His-tagged HDAC2 (1 to 488 residues) expressed in Sf9 insect cells using Fluor de Lys deacetylase or Fluor de Lys Green deacetylase substrate by fluorescent microplate reader assay
Chain of Histone deacetylase 2 (Q92769 whole entry, the tested form may be a part): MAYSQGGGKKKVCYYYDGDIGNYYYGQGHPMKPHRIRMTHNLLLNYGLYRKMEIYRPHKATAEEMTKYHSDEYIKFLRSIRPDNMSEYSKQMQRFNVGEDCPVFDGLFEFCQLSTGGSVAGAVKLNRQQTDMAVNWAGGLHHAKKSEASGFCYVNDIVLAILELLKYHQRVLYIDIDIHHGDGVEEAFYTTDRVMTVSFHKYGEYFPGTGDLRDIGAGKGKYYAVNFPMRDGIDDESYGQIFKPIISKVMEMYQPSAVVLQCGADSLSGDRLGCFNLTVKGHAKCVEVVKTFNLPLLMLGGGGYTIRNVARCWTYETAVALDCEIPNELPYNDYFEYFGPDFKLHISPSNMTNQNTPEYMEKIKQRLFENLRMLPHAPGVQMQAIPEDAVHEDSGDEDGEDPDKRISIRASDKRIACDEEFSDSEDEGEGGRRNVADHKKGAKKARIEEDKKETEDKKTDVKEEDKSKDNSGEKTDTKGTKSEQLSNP

[2] = target: Histone deacetylase 3 (Homo sapiens, UniProt O15379); assay: Inhibition of recombinant human C-terminal His-tagged HDAC3 (1 to 428 residues) expressed in Sf9 insect cells using Fluor de Lys deacetylase or Fluor de Lys Green deacetylase substrate by fluorescent microplate reader assay
Chain of Histone deacetylase 3 (O15379 whole entry, the tested form may be a part): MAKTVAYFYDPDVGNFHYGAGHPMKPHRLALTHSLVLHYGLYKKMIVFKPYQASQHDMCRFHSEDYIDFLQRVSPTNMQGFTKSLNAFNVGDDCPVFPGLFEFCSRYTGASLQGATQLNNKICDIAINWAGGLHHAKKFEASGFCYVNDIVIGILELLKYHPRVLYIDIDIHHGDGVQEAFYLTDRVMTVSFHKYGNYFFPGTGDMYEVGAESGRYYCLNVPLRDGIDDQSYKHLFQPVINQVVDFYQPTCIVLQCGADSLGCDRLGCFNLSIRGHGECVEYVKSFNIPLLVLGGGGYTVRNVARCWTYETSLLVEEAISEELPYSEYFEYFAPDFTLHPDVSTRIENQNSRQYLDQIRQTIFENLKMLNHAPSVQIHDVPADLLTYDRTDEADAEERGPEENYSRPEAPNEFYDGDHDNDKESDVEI

[3] = target: T1, Polyamine deacetylase HDAC10 (Homo sapiens, UniProt Q969S8); assay: Inhibition of recombinant human N-terminal FLAG-tagged HDAC10 (1 to 613 residues) expressed in Sf9 insect cells using Fluor de Lys deacetylase or Fluor de Lys Green deacetylase substrate by fluorescent microplate reader assay
T1 sequence (Q969S8 whole entry): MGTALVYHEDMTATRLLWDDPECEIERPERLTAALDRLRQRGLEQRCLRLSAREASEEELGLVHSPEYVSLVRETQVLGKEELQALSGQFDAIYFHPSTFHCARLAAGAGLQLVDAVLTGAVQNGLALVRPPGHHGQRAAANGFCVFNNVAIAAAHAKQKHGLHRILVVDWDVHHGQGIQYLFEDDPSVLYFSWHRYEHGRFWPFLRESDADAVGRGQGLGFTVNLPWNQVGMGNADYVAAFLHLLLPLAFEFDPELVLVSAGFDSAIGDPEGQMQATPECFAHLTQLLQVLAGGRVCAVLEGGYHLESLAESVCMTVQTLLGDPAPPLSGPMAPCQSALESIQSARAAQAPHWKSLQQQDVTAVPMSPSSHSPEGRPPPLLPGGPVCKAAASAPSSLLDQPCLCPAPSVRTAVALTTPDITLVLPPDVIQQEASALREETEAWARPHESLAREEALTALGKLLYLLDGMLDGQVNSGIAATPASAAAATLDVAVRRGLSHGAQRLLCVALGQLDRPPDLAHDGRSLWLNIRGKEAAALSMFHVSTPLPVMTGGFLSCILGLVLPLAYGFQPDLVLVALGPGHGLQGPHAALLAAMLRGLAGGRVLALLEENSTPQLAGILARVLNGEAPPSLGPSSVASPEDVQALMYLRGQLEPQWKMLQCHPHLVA

[4] = target: T2, Histone deacetylase 11 (Homo sapiens, UniProt Q96DB2); assay: Inhibition of recombinant human N-terminal His-tagged HDAC11 expressed in baculovirus expression system using Fluor de Lys deacetylase or Fluor de Lys Green deacetylase substrate by fluorescent microplate reader assay
T2 sequence (Q96DB2 whole entry): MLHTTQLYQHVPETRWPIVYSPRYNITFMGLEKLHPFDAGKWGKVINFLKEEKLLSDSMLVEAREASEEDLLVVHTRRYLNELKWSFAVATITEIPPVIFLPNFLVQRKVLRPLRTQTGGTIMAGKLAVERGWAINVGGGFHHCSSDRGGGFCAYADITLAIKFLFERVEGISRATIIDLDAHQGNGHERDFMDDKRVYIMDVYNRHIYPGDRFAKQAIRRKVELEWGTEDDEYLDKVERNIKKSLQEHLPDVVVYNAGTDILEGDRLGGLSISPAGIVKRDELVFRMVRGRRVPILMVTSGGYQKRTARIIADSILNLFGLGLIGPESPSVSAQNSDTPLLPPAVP

[5] = target: Histone deacetylase 1 (Homo sapiens, UniProt Q13547); assay: Inhibition of recombinant human C-terminal His-tagged HDAC1 expressed in Sf9 insect cells using Fluor de Lys deacetylase or Fluor de Lys Green deacetylase as substrate by fluorescent microplate reader assay
Chain of Histone deacetylase 1 (Q13547 whole entry): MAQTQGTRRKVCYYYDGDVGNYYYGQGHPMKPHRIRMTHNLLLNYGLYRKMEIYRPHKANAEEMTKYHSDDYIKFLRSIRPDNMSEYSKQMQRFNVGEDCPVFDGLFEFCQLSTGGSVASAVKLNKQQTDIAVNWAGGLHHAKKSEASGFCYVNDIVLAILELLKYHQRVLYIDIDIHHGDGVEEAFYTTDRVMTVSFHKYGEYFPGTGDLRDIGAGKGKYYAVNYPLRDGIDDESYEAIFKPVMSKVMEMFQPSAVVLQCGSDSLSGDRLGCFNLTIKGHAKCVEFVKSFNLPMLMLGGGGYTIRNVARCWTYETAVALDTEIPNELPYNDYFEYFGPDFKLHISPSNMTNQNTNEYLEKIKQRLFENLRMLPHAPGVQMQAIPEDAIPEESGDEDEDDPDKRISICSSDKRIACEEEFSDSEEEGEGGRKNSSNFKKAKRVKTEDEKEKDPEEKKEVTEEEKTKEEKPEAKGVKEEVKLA

[6] = species: Homo sapiens; assay: Selectivity index, ratio of IC50 for recombinant human C-terminal His-tagged HDAC1 expressed in Sf9 cells to IC50 for recombinant human full length N-terminal GST-tagged HDAC6 expressed in Sf9 cells
[7] = target: Histone deacetylase 4 (Homo sapiens, UniProt P56524); assay: Inhibition of recombinant human N-terminal GST-tagged and C-terminal His-tagged HDAC4 (627 to 1084 residues) expressed in Sf9 insect cells using Nepsilon-Trifluoroacetyl L-lysine as substrate by fluorescent microplate reader assay
Chain of Histone deacetylase 4 (P56524 whole entry, the tested form may be a part): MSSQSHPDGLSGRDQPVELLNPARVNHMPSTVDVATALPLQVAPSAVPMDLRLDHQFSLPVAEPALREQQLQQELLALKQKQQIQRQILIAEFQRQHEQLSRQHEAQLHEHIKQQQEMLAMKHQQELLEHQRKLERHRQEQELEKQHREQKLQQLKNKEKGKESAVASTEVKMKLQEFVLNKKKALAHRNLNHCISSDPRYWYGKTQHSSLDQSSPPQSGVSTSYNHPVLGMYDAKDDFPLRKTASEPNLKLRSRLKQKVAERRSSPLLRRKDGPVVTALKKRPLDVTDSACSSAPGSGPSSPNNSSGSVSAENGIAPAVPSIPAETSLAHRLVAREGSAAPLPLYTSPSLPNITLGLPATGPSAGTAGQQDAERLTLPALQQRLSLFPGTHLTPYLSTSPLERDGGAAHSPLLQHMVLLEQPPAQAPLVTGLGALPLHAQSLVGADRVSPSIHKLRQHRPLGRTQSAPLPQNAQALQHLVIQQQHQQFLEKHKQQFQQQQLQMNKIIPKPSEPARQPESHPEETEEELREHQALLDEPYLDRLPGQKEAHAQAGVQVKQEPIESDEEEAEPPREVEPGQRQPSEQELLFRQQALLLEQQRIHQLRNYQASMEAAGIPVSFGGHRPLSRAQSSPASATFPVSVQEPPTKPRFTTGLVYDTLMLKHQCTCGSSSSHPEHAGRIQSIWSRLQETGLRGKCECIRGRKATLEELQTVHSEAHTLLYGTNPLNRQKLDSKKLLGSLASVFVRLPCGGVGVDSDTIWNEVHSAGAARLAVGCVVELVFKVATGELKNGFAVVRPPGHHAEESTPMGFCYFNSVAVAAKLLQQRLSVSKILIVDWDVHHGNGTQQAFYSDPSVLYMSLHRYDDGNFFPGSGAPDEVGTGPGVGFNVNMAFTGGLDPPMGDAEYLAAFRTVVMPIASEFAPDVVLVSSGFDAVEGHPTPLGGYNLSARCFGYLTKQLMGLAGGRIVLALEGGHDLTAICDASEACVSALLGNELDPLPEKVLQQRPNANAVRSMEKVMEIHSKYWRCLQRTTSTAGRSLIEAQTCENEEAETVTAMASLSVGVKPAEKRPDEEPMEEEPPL

[8] = target: Histone deacetylase 5 (Homo sapiens, UniProt Q9UQL6); assay: Inhibition of recombinant human ful length N-terminal GST-tagged HDAC5 expressed in baculovirus expression system using Nepsilon-Trifluoroacetyl L-lysine as substrate by fluorescent microplate reader assay
Chain of Histone deacetylase 5 (Q9UQL6 whole entry): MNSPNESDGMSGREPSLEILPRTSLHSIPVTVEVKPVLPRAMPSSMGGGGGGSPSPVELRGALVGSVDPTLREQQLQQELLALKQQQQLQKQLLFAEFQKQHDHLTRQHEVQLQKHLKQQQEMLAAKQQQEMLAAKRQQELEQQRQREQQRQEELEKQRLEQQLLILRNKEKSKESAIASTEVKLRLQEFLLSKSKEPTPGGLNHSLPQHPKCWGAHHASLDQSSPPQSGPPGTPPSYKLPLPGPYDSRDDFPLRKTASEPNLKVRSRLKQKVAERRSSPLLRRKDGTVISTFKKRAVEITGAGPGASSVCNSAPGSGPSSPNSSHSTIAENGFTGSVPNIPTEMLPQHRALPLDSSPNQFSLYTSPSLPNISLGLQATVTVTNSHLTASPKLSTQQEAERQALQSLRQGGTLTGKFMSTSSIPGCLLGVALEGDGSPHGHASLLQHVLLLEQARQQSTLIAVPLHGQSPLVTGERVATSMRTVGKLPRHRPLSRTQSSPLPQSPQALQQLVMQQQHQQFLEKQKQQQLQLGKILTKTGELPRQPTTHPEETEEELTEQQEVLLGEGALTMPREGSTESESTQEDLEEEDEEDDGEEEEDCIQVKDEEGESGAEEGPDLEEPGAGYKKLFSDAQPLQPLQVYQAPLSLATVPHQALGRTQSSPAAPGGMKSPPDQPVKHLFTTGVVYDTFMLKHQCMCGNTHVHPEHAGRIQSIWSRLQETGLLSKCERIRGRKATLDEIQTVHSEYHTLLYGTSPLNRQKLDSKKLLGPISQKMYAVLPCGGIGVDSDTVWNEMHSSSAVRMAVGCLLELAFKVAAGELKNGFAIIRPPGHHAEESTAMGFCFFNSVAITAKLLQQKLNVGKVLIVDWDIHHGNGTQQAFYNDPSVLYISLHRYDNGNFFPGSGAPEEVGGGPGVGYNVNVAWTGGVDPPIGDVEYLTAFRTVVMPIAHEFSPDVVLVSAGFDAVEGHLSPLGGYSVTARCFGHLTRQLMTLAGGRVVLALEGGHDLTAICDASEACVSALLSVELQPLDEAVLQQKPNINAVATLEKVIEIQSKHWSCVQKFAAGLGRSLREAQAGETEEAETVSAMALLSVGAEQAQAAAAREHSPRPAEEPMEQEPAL

[9] = target: T3, Histone deacetylase 7 (Homo sapiens, UniProt Q8WUI4); assay: Inhibition of recombinant human N-terminal GST-tagged HDAC7 (518 to end residues) expressed in baculovirus expression system using Nepsilon-Trifluoroacetyl L-lysine as substrate by fluorescent microplate reader assay
T3 sequence (Q8WUI4 whole entry): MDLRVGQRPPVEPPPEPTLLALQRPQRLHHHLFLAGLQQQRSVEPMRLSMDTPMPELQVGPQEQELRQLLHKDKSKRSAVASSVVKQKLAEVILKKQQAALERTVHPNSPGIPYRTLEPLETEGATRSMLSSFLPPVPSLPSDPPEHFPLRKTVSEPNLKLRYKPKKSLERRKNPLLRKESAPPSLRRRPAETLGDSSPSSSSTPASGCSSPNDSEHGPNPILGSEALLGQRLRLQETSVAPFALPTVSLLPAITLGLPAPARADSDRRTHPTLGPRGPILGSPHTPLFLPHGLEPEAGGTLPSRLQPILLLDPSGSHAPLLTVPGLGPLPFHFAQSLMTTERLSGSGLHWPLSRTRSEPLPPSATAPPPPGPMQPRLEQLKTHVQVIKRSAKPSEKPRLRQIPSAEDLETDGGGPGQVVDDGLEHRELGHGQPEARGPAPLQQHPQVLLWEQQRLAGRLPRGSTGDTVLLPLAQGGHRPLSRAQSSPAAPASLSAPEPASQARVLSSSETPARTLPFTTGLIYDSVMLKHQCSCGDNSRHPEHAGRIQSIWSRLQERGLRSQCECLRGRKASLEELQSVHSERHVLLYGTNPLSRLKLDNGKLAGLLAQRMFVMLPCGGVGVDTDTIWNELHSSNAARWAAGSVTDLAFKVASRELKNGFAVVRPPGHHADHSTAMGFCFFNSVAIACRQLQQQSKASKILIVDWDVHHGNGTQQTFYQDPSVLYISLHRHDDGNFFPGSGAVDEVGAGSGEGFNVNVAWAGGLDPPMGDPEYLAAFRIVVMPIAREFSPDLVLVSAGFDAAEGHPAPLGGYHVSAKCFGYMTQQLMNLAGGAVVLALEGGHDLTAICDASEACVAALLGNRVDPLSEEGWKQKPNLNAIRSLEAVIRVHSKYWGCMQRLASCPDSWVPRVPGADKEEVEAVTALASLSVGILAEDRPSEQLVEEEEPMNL

[10] = target: T4, Histone deacetylase 8 (Homo sapiens, UniProt Q9BY41); assay: Inhibition of recombinant human full length C-terminal His-tagged HDAC8 expressed in baculovirus expression system using Fluor de Lys deacetylase or Fluor de Lys Green deacetylase substrate by fluorescent microplate reader assay
T4 sequence (Q9BY41 whole entry): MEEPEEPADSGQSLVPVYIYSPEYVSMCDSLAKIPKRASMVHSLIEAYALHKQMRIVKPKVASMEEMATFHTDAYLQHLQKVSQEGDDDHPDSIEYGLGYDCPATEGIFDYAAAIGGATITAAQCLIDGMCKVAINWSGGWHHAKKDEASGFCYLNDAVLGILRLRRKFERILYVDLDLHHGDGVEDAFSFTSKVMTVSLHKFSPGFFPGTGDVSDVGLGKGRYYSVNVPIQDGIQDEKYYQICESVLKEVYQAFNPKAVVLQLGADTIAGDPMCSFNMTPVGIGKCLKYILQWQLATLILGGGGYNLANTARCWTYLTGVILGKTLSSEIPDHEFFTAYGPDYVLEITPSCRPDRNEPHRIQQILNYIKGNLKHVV

[11] = target: Histone deacetylase 9 (Homo sapiens, UniProt Q9UKV0); assay: Inhibition of recombinant human C-terminal His-tagged HDAC9 (604 to 1066 residues) expressed in baculovirus expression system using Nepsilon-Trifluoroacetyl L-lysine substrate by fluorescent microplate reader assay
Chain of Histone deacetylase 9 (Q9UKV0 whole entry, the tested form may be a part): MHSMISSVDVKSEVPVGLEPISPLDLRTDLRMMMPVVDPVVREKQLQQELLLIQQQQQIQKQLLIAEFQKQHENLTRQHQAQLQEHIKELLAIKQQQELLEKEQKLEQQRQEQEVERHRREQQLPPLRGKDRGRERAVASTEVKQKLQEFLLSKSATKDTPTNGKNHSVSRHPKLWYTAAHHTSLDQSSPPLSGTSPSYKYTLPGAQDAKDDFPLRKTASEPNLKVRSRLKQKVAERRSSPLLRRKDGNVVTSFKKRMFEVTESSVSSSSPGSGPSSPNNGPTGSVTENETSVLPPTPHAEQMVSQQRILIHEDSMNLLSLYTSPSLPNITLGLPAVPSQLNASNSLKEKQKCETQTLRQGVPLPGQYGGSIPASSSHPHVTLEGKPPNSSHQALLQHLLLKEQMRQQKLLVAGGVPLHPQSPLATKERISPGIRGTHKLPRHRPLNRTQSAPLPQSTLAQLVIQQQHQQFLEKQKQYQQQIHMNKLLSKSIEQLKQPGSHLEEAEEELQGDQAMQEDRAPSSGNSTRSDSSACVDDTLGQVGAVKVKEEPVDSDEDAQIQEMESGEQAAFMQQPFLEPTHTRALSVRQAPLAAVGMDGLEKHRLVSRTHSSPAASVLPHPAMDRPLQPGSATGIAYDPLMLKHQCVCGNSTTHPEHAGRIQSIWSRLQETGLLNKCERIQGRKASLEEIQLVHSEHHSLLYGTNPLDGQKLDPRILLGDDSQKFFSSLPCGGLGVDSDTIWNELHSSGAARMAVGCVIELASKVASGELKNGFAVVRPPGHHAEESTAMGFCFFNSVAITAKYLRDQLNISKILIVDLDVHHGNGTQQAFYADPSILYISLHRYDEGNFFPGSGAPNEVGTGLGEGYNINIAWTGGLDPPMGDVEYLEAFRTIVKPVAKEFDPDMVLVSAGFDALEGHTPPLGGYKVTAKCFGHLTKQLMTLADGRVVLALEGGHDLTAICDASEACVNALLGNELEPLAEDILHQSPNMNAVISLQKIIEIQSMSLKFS

[12] = target: T5, Protein deacetylase HDAC6 (Homo sapiens, UniProt Q9UBN7); assay: Inhibition of recombinant human full length N-terminal GST-tagged HDAC6 expressed in Sf9 insect cells using Fluor de Lys deacetylase or Fluor de Lys Green deacetylase substrate by fluorescent microplate reader assay
T5 sequence (Q9UBN7 whole entry): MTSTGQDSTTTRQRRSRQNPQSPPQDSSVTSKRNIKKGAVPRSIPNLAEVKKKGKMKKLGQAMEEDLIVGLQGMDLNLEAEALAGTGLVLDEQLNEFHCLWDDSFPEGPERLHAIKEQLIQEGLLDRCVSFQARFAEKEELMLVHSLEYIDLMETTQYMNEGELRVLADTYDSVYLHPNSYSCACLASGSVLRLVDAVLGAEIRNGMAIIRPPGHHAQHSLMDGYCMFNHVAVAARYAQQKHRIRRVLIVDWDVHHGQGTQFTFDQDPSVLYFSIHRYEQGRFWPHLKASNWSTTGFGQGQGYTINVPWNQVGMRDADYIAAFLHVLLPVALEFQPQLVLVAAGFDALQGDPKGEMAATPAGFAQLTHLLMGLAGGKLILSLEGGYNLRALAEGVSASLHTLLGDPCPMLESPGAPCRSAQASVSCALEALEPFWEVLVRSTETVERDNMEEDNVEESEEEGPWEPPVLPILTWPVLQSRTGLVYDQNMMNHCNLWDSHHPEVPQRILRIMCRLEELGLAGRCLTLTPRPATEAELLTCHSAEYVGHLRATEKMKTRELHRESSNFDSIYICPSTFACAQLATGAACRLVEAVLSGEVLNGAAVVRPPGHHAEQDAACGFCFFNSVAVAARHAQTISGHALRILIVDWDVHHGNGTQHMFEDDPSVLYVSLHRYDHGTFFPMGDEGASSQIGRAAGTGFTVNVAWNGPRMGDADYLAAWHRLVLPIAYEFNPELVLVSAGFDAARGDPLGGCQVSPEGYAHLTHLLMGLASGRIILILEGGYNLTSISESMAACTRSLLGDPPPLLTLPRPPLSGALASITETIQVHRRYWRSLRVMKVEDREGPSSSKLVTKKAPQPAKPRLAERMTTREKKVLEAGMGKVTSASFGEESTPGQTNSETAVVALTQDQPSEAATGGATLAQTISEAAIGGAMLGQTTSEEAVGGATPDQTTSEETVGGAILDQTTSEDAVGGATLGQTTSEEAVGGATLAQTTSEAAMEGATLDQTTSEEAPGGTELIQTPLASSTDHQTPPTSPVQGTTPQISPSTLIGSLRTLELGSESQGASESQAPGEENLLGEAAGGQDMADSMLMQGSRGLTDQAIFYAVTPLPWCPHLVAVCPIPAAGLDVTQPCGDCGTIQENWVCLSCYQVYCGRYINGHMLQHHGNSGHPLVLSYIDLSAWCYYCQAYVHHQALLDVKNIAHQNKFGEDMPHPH

Row | IC50 [5] [µM] | IC50 [12] [µM] | SMILES | Selectivity Index [6] | other results
1 |  |  | O=C(NO)c1cc(F)c(Cn2nnnc2-c2cccs2)c(F)c1 |  | IC50 [1]: 9.23 µM; IC50 [2]: 6.04 µM; IC50 [3]: 8.74 µM; IC50 [4]: 5.66 µM
2 | 29.4 | 0.453 | O=C(NO)c1cccc(F)c1 | 64 | 
3 | 15.8 | 0.112 | Nc1c(F)cc(C(=O)NO)cc1F | 141 | 
4 | 7.14 | 0.389 | Nc1ccc(C(=O)NO)cc1 | 18 | 
5 | 0.718 | 0.01 | CCN(CC)Cc1ccc2cc(COC(=O)Nc3c(F)cc(C(=O)NO)cc3F)ccc2c1 | 70 | 
6 | 25.4 | 1.34 | O=C(NO)c1ccccc1 [BENZOHYDROXAMATE] | 19 | 
7 | 11.4 | 0.07 | Cc1ccc(C(=O)NO)cn1 | 162 | 
8 | 3.21 | 0.058 | CC(=O)Nc1ccc(C(=O)NO)cc1F | 55 | 
9 | 1.91 | 0.162 | CC(=O)Nc1ccc(C(=O)NO)cc1 | 11 | 
10 | 35 | 0.679 | O=C(NO)c1cccnc1 [NICOXAMAT] | 51 | 
11 | 9.71 | 0.24 | Nc1ccc(C(=O)NO)cn1 | 40 | 
12 | 6.82 | 0.049 | Cc1ccc(C(=O)NO)cc1F | 140 | 
13 | 3.06 | 0.064 | Nc1ncc(C(=O)NO)cn1 | 47 | 
14 | 13.8 | 0.027 | Cc1c(F)cc(C(=O)NO)cc1F | 505 | 
15 | 7.39 | 0.183 | Nc1ccc(C(=O)NO)cc1F | 40 | 
16 | 5.64 | 0.14 | Cc1ccc(C(=O)NO)cc1 | 40 | 

Row | SMILES | IC50 [5] [µM] | IC50 [12] [µM] | Selectivity Index [6] | other results
17 | O=C(NO)c1ccc(Cn2nnc(-c3ncccn3)n2)cc1 | 0.93 |  | 733 | IC50 [1]: 3.01 µM; IC50 [2]: 0.884 µM; IC50 [7]: 4.6 µM; IC50 [8]: 5 µM; IC50 [9]: 1.01 µM; IC50 [10]: 0.32 µM; IC50 [11]: 1.7 µM; IC50 [3]: 0.474 µM; IC50 [4]: 0.762 µM
18 | O=C(NO)c1cc(F)c(Cn2nnc(-c3ncccn3)n2)c(F)c1 | 3.96 |  |  | IC50 [1]: 17.2 µM; IC50 [2]: 5.18 µM; IC50 [7]: 0.562 µM; IC50 [8]: 2.79 µM; IC50 [10]: 0.504 µM; IC50 [11]: 0.48 µM; IC50 [3]: 9.08 µM; IC50 [4]: 3.07 µM
